In patent US20240139113A1, “LIPID NANOPARTICLE WITH TARGET INTEGRIN FUNCTION AND USES THEREOF” (priority 2022, published 2024):

What was measured:
[1] = system: human umbilical vein endothelial cells (HUVEC); assay: Cell viability of normal cells (HUVEC), 3-day treatment; format: cell-based; conditions: 3 days, FIG. 2A
From the text: (§1) In this example, the effect of the lipid nanoparticle on the growth of normal cells is investigated.
(§2) Dox represents doxorubicin; Tetrac represents tetraiodothyroacetic acid.

[2] = system: monkey kidney epithelial cells (Vero); assay: Cell viability of normal cells (Vero), 3-day treatment; format: cell-based; conditions: 3 days, FIG. 2A
From the text: as §1, §2

## O=C(O)Cc1cc(I)c(Oc2cc(I)c(O)c(I)c2)c(I)c1 [Tetrac, tetraiodothyroacetic acid]
[1]
  cell viability / growth of normal cells: do not affect the growth of normal cells
[2]
  cell viability / growth of normal cells: do not affect the growth of normal cells
